Measured values from patent publication US20260001928A1 (CORTERIA PHARMACEUTICALS, priority 2022, published 2026).
*1 amine or outer side, *2 acyl side, *3 side chain or, on linkers, in order; H or OH if unused. Where a SMILES comes first, the peptide text is derived from it. Side-chain parts run from the residue outwards. [ ]: non-standard residue; d: D form. The star is where a group is joined. C20 diacid = O=C(O)CCCCCCCCCCCCCCCCCCC(=O)*; γGlu = O=C(O)[C@H](CCC(=O)[*:2])N[*:1]; NMeI = CC[C@H](C)[C@H](NC)C(=O)O; AEEA = NCCOCCOCC(=O)O; Aib = CC(C)(N)C(=O)O

Legend:
Human PLM = details: 37° C., up to 2 hours
Dog PLM = details: 37° C., up to 2 hours
Rat PLM = details: male Sprague Dawley rats, 37° C., up to 2 hours
in vitro = assay: in vitro; set-up: dose or concentration left out as unconfirmed; details: dog, plasma
human CRF2a receptor = molecular target: T1, human CRF2a receptor (Homo sapiens, UniProt Q13324); assay: Activity at human CRF2a receptor, cAMP functional assay in TeloHEAC cells; type: cell-based; details: TeloHEAC cells stably expressing human CRF2a receptor, relative to urocortin 2 (100 nM = 100%)
T1 construct: expressed in transfected cells; host or cells: TeloHEAC cells
T1 sequence (Q13324 1-411): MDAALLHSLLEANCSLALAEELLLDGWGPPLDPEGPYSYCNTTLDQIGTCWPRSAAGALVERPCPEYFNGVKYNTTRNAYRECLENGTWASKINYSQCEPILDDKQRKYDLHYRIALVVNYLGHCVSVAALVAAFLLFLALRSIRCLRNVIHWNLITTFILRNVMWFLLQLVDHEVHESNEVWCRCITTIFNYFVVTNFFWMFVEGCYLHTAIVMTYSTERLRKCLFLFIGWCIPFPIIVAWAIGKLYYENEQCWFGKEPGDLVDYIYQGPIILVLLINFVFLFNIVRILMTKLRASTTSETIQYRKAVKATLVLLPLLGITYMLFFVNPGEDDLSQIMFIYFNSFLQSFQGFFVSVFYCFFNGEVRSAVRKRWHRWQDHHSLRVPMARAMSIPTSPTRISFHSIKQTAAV
Procedure, shortened: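 TeloHEAC cells stably expressing human CRF2a (10000 cells/well) were treated with 16-point 1:2 compound dilutions in HBSS/20 mM HEPES with IBMX for 30 min at 37° C. cAMP was read by HTRF (665/620 nm ratio). EC50 was the concentration giving 50% activation, with 100 nM urocortin 2 set as 100%.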

[1] = Chemical stability in buffer (pH 7.4 / pH 4.5), % purity loss; type: physicochemical; details: 100 mM phosphate buffer pH 7.4; 40° C. vs 5° C.; 14 or 28 days
Procedure, shortened: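 LC-UV gave % loss after 14 or 28 days of storage at 5 °C or 40 °C. Samples were diluted supernatants from compound incubated 1 h at room temperature at 10 mg/mL target, in 100 mM acetate pH 4.5 or 100 mM phosphate pH 7.4.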

[2] = Pharmacokinetics in male Sprague Dawley rats after subcutaneous administration; type: in vivo; details: plasma, rat, IV, 0.05 mg/kg
[3] = In vitro plasma stability, human plasma; type: in vitro ADME; set-up: dose or concentration left out as unconfirmed; details: Human PLM, 37° C.
CFR1R receptor = molecular target: T2, CFR1R receptor (Homo sapiens, UniProt P34998); assay: Activity at anti-target CFR1R receptor, cAMP assay in CRF1R-overexpression CHO-K1 cells; type: cell-based; details: 100% = Sauvagine at 100 nM; for EC50: cAMP
T2 construct: host or cells: CHO-K1 (clone 2)
T2 sequence (P34998 24-415): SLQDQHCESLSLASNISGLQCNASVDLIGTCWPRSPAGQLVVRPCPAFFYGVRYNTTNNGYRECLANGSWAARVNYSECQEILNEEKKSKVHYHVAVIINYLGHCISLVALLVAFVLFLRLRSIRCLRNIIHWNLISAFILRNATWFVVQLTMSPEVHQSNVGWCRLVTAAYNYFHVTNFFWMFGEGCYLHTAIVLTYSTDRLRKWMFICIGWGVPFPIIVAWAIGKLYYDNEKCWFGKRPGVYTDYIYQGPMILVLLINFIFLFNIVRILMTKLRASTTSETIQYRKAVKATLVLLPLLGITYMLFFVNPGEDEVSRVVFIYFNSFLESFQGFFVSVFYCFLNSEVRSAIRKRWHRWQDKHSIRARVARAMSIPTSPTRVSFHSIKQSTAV
Procedure, shortened: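 The method mirrors that used with TeloHAEC cells. Here, thawed clone 2 cells seeded at 4000 cells/well are tested, and 100 nM Sauvagine sets the top of the activation scale.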

Sprague Dawley rats = assay: Effect on systolic blood pressure, telemetry in Sprague Dawley rats; type: in vivo, rat; details: 0.1 mg/kg SC; for Systolic blood pressure (Mean) % change from baseline, 8 h / Systolic blood pressure (Mean) % change from baseline, 12 h / Systolic blood pressure (Mean) % change from baseline, 24 h: n=2; for Duration of action: last time point with an effect on BP still observed
Procedure, shortened: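 Values are % change from a 1 h pre-dose baseline in systolic pressure, tracked by telemetry for up to 48 hours after a single 0.1 mg/kg subcutaneous dose. Rats (Sprague Dawley, n=2 per peptide) carried aortic catheters and recovered at least 10 days post-surgery; duration of action marks the last time point still showing an effect.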

[4] = In vitro plasma stability, rat plasma; type: in vitro ADME; set-up: remaining at 2 h: dose or concentration left out as unconfirmed; details: male, Sprague Dawley, plasma; Rat PLM, 37° C.
[5] = In vitro subcutaneous tissue supernatant (SCts) stability and metabolite identification, rat; type: in vitro ADME; set-up: remaining at 2 h: dose or concentration left out as unconfirmed; details: male, Sprague Dawley; rat subcutaneous tissue supernatant (SCts), 37° C, 2 h
[6] = subcutaneous tissue supernatant (SCts); details: male Sprague Dawley rats, 37° C., up to 2 hours

| Compound | not cleaved (Human PLM) | percent remaining (Dog PLM) | not cleaved (Rat PLM) | remaining at 2 h (in vitro) | EC50 (human CRF2a receptor) | Buffer stability pH 7.4 % purity loss [1] | AUC(0-t) [2] | half-life [2] | remaining at 2 h [3] | Emax (% I) (CFR1R receptor) | EC50 (CFR1R receptor) | Systolic blood pressure (Mean) % change from baseline, 8 h (Sprague Dawley rats) | Systolic blood pressure (Mean) % change from baseline, 12 h (Sprague Dawley rats) | Systolic blood pressure (Mean) % change from baseline, 24 h (Sprague Dawley rats) | Duration of action (Sprague Dawley rats) | remaining at 2 h [4] | remaining at 2 h [5] | not cleaved [6] |
| --- | --- | --- | --- | --- | --- | --- | --- | --- | --- | --- | --- | --- | --- | --- | --- | --- | --- | --- |
| NMeIVLSLDvPIKLK*KILLEQEKQKEQREQAETNAibQILAQV-NH2 [233] | 100% remaining at 2 hours | 99% remaining at 2 hours | 106% remaining at 2 hours | – | – | – | – | – | – | – | – | – | – | – | – | – | – | – |
| NMeIVLSLDvPIKLK*KILLEQEKQKEQREQAETNAibQILAQV-NH2 [218] | 99% remaining at 2 hours | 102% remaining at 2 hours | 109% remaining at 2 hours | – | – | – | – | – | – | – | – | – | – | – | – | – | – | – |
| CC[C@H](C)[C@H](NC)C(=O)N[C@H](C(=O)N[C@@H](CC(C)C)C(=O)N[C@@H](CO)C(=O)N[C@@H](CC(C)C)C(=O)N[C@@H](CC(=O)O)C(=O)N[C@@H](C(=O)N1CCC[C@H]1C(=O)N[C@H](C(=O)N[C@@H](CCCCN)C(=O)N[C@@H](CC(C)C)C(=O)N[C@@H](CCCCNC(=O)COCCOCCNC(=O)CC[C@H](NC(=O)CCCCCCCCCCCCCCCCCCC(=O)O)C(=O)O)C(=O)N[C@@H](CCCCN)C(=O)N[C@H](C(=O)N[C@@H](CC(C)C)C(=O)N[C@@H](CC(C)C)C(=O)N[C@@H](CCC(=O)O)C(=O)N[C@@H](CCC(N)=O)C(=O)N[C@@H](CCC(=O)O)C(=O)N[C@@H](CCCCN)C(=O)N[C@@H](CCC(N)=O)C(=O)N[C@@H](CCCCN)C(=O)N[C@@H](CCC(=O)O)C(=O)N[C@@H](CCC(N)=O)C(=O)N[C@@H](CCCNC(=N)N)C(=O)N[C@@H](CCC(=O)O)C(=O)N[C@@H](CCC(N)=O)C(=O)N[C@@H](C)C(=O)N[C@@H](CCC(=O)O)C(=O)N[C@H](C(=O)N[C@@H](CC(N)=O)C(=O)NC(C)(C)C(=O)N[C@@H](CCC(N)=O)C(=O)N[C@H](C(=O)N[C@@H](CC(C)C)C(=O)N[C@@H](C)C(=O)N[C@@H](CCC(N)=O)C(=O)N[C@H](C(N)=O)C(C)C)[C@@H](C)CC)[C@@H](C)O)[C@@H](C)CC)[C@@H](C)CC)C(C)C)C(C)C [compound 233] (H-[NMeI]VLSLD[dV]PIKLK([AEEA-γGlu-C20 diacid])KILLEQEKQKEQREQAETN[Aib]QILAQV-NH2) | – | – | – | 99% | 0.12 nM | 0.0/Not Tested % | 4.88 µg·h/mL | 9 h | 100% | 8 % I | > 250 nM | 1% | −8% | −11% | >24 h | 106% | 56% | – |
| Ac-IVLSLDvPIKLK*KILLEQEKQKEQREQAETNAibQILAQV-NH2 | 99% remaining at 2 hours | 102% remaining at 2 hours | 99% remaining at 2 hours | – | – | – | – | – | – | – | – | – | – | – | – | – | – | – |
| Ac-IVLSLDvPIKLK*KILLEQEKQKAibQREQAETNAibQILAQV-NH2 | – | – | – | – | – | – | – | – | – | – | – | – | – | – | – | – | – | 95% remaining at 2 h |
| CC[C@H](C)[C@H](NC(C)=O)C(=O)N[C@H](C(=O)N[C@@H](CC(C)C)C(=O)N[C@@H](CO)C(=O)N[C@@H](CC(C)C)C(=O)N[C@@H](CC(=O)O)C(=O)N[C@@H](C(=O)N1CCC[C@H]1C(=O)N[C@H](C(=O)N[C@@H](CCCCN)C(=O)N[C@@H](CC(C)C)C(=O)N[C@@H](CCCCNC(=O)CC[C@H](NC(=O)CCCCCCCCCCCCCCCCCCC(=O)O)C(=O)O)C(=O)N[C@@H](CCCCN)C(=O)N[C@H](C(=O)N[C@@H](CC(C)C)C(=O)N[C@@H](CC(C)C)C(=O)N[C@@H](CCC(=O)O)C(=O)N[C@@H](CCC(N)=O)C(=O)N[C@@H](CCC(=O)O)C(=O)N[C@@H](CCCCN)C(=O)N[C@@H](CCC(N)=O)C(=O)N[C@@H](CCCCN)C(=O)N[C@@H](CCC(=O)O)C(=O)N[C@@H](CCC(N)=O)C(=O)N[C@@H](CCCNC(=N)N)C(=O)N[C@@H](CCC(=O)O)C(=O)N[C@@H](CCC(N)=O)C(=O)N[C@@H](C)C(=O)N[C@@H](CCC(=O)O)C(=O)N[C@H](C(=O)N[C@@H](CC(N)=O)C(=O)NC(C)(C)C(=O)N[C@@H](CCC(N)=O)C(=O)N[C@H](C(=O)N[C@@H](CC(C)C)C(=O)N[C@@H](C)C(=O)N[C@@H](CCC(N)=O)C(=O)N[C@H](C(N)=O)C(C)C)[C@@H](C)CC)[C@@H](C)O)[C@@H](C)CC)[C@@H](C)CC)C(C)C)C(C)C [compound 213] (Ac-IVLSLD[dV]PIKLK([γGlu-C20 diacid])KILLEQEKQKEQREQAETN[Aib]QILAQV-NH2) | – | – | – | 102% | 0.22 nM | −0.1/Not Tested % | – | – | 99% | 27 % I | > 250 nM | −10% | −18% | −13% | >24 h | 99% | 74% | – |
| CC[C@H](C)[C@H](NC)C(=O)N[C@H](C(=O)N[C@@H](CC(C)C)C(=O)N[C@@H](CO)C(=O)N[C@@H](CC(C)C)C(=O)N[C@@H](CC(=O)O)C(=O)N[C@@H](C(=O)N1CCC[C@H]1C(=O)N[C@H](C(=O)N[C@@H](CCCCN)C(=O)N[C@@H](CC(C)C)C(=O)N[C@@H](CCCCNC(=O)COCCOCCNC(=O)COCCOCCNC(=O)CC[C@H](NC(=O)CCCCCCCCCCCCCCCCCCC(=O)O)C(=O)O)C(=O)N[C@@H](CCCCN)C(=O)N[C@H](C(=O)N[C@@H](CC(C)C)C(=O)N[C@@H](CC(C)C)C(=O)N[C@@H](CCC(=O)O)C(=O)N[C@@H](CCC(N)=O)C(=O)N[C@@H](CCC(=O)O)C(=O)N[C@@H](CCCCN)C(=O)N[C@@H](CCC(N)=O)C(=O)N[C@@H](CCCCN)C(=O)N[C@@H](CCC(=O)O)C(=O)N[C@@H](CCC(N)=O)C(=O)N[C@@H](CCCNC(=N)N)C(=O)N[C@@H](CCC(=O)O)C(=O)N[C@@H](CCC(N)=O)C(=O)N[C@@H](C)C(=O)N[C@@H](CCC(=O)O)C(=O)N[C@H](C(=O)N[C@@H](CC(N)=O)C(=O)NC(C)(C)C(=O)N[C@@H](CCC(N)=O)C(=O)N[C@H](C(=O)N[C@@H](CC(C)C)C(=O)N[C@@H](C)C(=O)N[C@@H](CCC(N)=O)C(=O)N[C@H](C(N)=O)C(C)C)[C@@H](C)CC)[C@@H](C)O)[C@@H](C)CC)[C@@H](C)CC)C(C)C)C(C)C [compound 237] (H-[NMeI]VLSLD[dV]PIKLK([AEEA-AEEA-γGlu-C20 diacid])KILLEQEKQKEQREQAETN[Aib]QILAQV-NH2) | – | – | – | 86% | 0.41 nM | 0.0/Not Tested % | 4.16 µg·h/mL | 11 h | 83% | 6 % I | > 250 nM | – | – | – | – | 84% | 60% | – |
